Values quoted from earlier work in patent US5468499A, “Liposomes containing the salt of phosphoramide mustard and related compounds” (Ohio State University, priority 1993, dated 1995).

System: tumor

For `O=P1(N(CCCl)CCCl)NCCCO1` (stereo not shown) [cyclophosphamide], the “tumoricidal activity of the drug itself” value is given as “not directly tumoricidal”.
